The values below come from PMC12257544, “Fluorescent Isostere (Fluostere) of the Carboxylate: Design of hDHODH Fluorescent Inhibitors as Proof of Concept” (Journal of Medicinal Chemistry, 2025).

For one data set, the system named is THP1 cells. In words: Annexin V apoptosis assay. In kind it is cell-based, human. On the procedure: After 3 days of culture, the apoptotic assay was performed using the Annexin V-FITC Kit (Miltenyi Biotec, Italy), according to the manufacturer's instructions. The apoptotic cells were acquired on […] and analyzed using Kaluza software version 2.1 (Beckman Coulter, Fullerton, CA).

The test system of the next data set is K562 cells. The data set is described as follows: Cell viability assay (CellTiter-Glo). Type of data set: cell-based. The following applies: Homo sapiens, K562, 72 h; 3 days of culture; read-out: Viability EC50 K562 (C.L. 95 %). The protocol: After 3 days of culture, the percentage of live cells was determined using the CellTiter-Glo Luminescent assay (Promega, Milan, Italy), following the manufacturer’s instructions.
Background: In ATP-based viability assays light output follows the ATP content of the culture.

A short description of data set [1]: Cytotoxicity assay (CellTiter-Glo). The following applies: human, MRC-5 cells; 72 h incubation; read-out: MRC-5 CC50 (C.L. 95 %). In kind it is cell-based. On the procedure:
After 72 h of incubation, the number of viable cells was determined using the CellTiter-Glo Luminescent assay (Promega, Milan, Italy). The cytotoxicity of the tested compounds was expressed as cytotoxic concentration (CC50).

The target in a further data set is hDHODH (Homo sapiens, UniProt Q02127). In words: Fluorescence emission of the compound in the presence of recombinant hDHODH. Type of data set: binding. To be noted: compound 1 μM, hDHODH 31.5 to 504 nM, TRIS pH 8. On the procedure: In particular, we observed an increase in fluorescence intensity in correlation with the growing amount of protein, as shown in Figure .
UV–Vis absorption spectra were recorded on a Cary60 spectrometer. Photoemission spectra, luminescence lifetimes, and quantum yields were acquired with a HORIBA Jobin Yvon IBH Fluorolog-TCSPC spectrofluorometer equipped with a Quanta-φ integrating sphere. […] Emission-decay data were collected in 2048 channels to 10000 counts in the peak channel. IRF was measures using colloidal silica suspension in H2O to scatter light. Data were analyzed with the software DAS6 (TCSPC decay-analysis software) using a nonlinear least-squares method to fit of the decay to a sum of exponentials. The value of χ^2, residuals and the autocorrelation function (Durbin-Watson parameter) were used to determine the quality of the fit. […] After 5 min incubation UV–Vis absorption spectra were recorded on a Cary60 spectrophotometer and photoemission spectra were acquired with a HORIBA Jobin Yvon IBH Fluorolog-TCSPC spectrofluorometer with excitation λ of 366 nm and maximum of emission at 500 nm; a.u. data were analyzed with GraphPad Prism using One Site – Specific Binding equation.

Data set [2] concerns unrelated GST-conjugated-protein. The data set is described as follows: Fluorescence control with an unrelated GST-conjugated protein. In kind it is binding. The following applies: fixed amount of compound, increasing protein concentration. On the procedure: Because the isolated hDHODH used for the previous measurements, and in inhibition enzymatic assay, is the GST-tagged protein, we decided to confirm that the observed fluorescence enhancement resulted from specific binding of inhibitor 11a to the target protein and not from nonspecific interactions with the GST portion.
Apoptosis test rescue with uridine:
Figure S4. A) Analysis of the apoptotic rate induced by compound 11a, on THP-1 cell line (n = 3) with or without exogenous uridine at 100 µM. Compounds were utilized at 1 µM; apoptotic was evaluated after 3 days of treatment. DMSO: dimethyl sulfoxide. Cpd: compound. Ur: uridine. Statistical significance: Student’s t test: **p<0.01. B) Representative Annexin V-FITC/PI flow cytometry dot plots of THP-1 cells after 3 days of treatment in presence of vehicle (left), compound 11a (middle), compound 11a and uridine 100 µM. Data are representative of 3 independent experiments.
Figure S5. Fluorescence-based analysis of the potential contribution of GST-tag to the emission restoration of compound 11a. […]
increasing concentration versus a fixed amount of compound 11a. […]
show protein-dependent fluorescence restoration. […]

In a further data set the test system is HCT-8 cells. In words: Confocal Red-MitoTracker co-localization. In kind it is cell-based, human. The following applies: 10 μM, 24 h. The protocol:
Co-localization experiments were performed to examine whether compound 11a may reach the cellular compartment where hDHODH is located. For this, a specific mitochondrial stain marker in the two cell lines in which the biological activities of 11a were observed, namely THP-1 and HCT-8 cells, was used. The compound was therefore incubated with THP-1 cells (Figure ) or HTC-8 cells (Figure ) at 37 °C for 24 h. Then, cells were stained with Red-MitoTracker (a specific fluorescent probe for mitochondrial targeting) for 30 min at 37 °C.
For fluorescence analysis, 10 μM of target compounds were incubated with THP-1 for 24 h. After washing the cells with a PBS buffer solution, they were analyzed under confocal microscopy imaging technique using the appropriate laser to excite the molecule. For the colocalization experiments, HCT-8 cells (55,000 cells/well) were plated on μ-Slide 8 well high glass bottom (IBIDI, Gräfelfing, Germany) and treated for 24 h with 10 μM of 11a at 37 °C. Then, cells were stained with MitoTracker Red CMXRos (ThermoFischer, Carlsbad, CA, USA) (1:4000) for 30′ at 37 °C and after washing with PBS buffer solution, cells were visualized with a Leica TCS SP5 multiphoton-inverted confocal microscope equipped with LAS AF matrix software. Live cells were imaged using an HCX PL APO 63×/1.4 NA oil immersion objective. […]

The next data set concerns THP-1 cells. In words: Co-localization competition assay with Bay2402234 (Manders coefficient). To be noted: 10 μM each, 3 h, Manders coefficient, Welch's t test p = 0.0024. Type of data set: cell-based, human. The protocol:
Colocalization between hDHODH inhibitors and mitochondria was quantified using Manders coefficient (Figure D).
THP-1 cells were incubated for 3 h with hDHODHi 11a and Bay240223410 at 10 μM, either alone or in combination. After incubation, the cells were washed and stained with Red-MitoTracker CMXRos (Thermo Fisher, Carlsbad, CA, USA) at a concentration of 100 nM for 30 min at 37 °C. Cells were imaged with a Leica TCS SP8 confocal system (Leica Microsystems) equipped with 4 excitation lasers (405 Diode, Argon, DPSS561, HeNe633). Images were acquired with a HCX PL APO 63×/1.4 NA oil-immersion objective with a resolution of 81 nm × 81 nm and were processed and analyzed with ImageJ software (Rasband, W.S., U.S. National Institutes of Health, Bethesda, […]). In particular, colocalization was analyzed with JACoP plugin and Manders’ coefficient was calculated

The target in another data set is hDHODH enzyme GST-tagged (Homo sapiens, UniProt Q02127). In words: hDHODH inhibition assay (DCIP reduction).
Chain of hDHODH enzyme GST-tagged (Q02127 whole entry): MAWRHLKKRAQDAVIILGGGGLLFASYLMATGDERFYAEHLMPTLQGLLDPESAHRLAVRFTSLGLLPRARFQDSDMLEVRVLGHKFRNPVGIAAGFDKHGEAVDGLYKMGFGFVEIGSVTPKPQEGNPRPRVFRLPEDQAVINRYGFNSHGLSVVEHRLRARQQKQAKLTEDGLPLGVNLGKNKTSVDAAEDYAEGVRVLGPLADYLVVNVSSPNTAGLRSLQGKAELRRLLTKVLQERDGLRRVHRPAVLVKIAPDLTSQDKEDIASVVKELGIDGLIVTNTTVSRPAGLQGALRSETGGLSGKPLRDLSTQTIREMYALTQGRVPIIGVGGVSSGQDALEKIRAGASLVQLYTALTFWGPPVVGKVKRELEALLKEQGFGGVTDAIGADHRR

Chain of hDHODH (Q02127 whole entry): as above
Procedure for hDHODH enzyme GST-tagged: The enzyme (around 60 nM) was preincubated for 5 min at 37 °C in Tris-buffer solution (pH 8.0) with coenzyme Q10 (100 μM), tested compounds at different concentrations (final DMSO concentration 0.1% v/v), and DCIP (50 μM). The reaction was initiated by addition of DHO (500 μM) and the reduction was monitored at λ = 650 nm. […] Values are means ± SE of three independent experiments.

What is called EC50 is the concentration needed to bring the measured effect to its halfway point. Broadly, the CC50 is the concentration giving 50% cytotoxicity. For orientation: IC50 means the concentration needed to halve the response being measured. The low end stands for greater potency, the high end for weaker potency. As to `Oc1nn2ccccc2c1/C=C/c1c(F)c(F)c(-c2ccccc2)c(F)c1F` [Compound 11a, (E)-3-(2-(2,3,5,6-Tetrafluoro-[1,1’-biphenyl]-4-yl)vinyl)pyrazolo[1,5-a]pyridin-2-ol], the EC50 in the data set on THP1 cells (Homo sapiens, THP-1, 72 h, 3 days of culture, Annexin V-FITC, read-out: Apoptosis EC50 THP1 (C.L. 95 %)) is 693 nM; in the data set with K562 cells, 114 nM. In the data set with THP1 cells (lower than MEDS433, THP1 apoptosis), the “antileukemic activity relative to MEDS433” value is reported as approximately 10 fold. Besides, in the data set on THP1 cells (uridine 100 μM, compound 1 µM, THP-1, 3 days), the “pro-apoptotic activity after adding exogenous uridine” value is reported as “completely reversed”. The CC50 at 72 h in data set [1] was determined as 7000 nM. In addition, the “fluorescence in the presence of the recombinant protein” value at hDHODH is reported as “restoration of fluorescence”. In addition, the “fluorescence in the presence of an unrelated GST-conjugated protein” value in data set [2] is “no restoration of fluorescence”. Besides, the “co-localization with Red-MitoTracker” value in the data set on HCT-8 cells is “localize into mitochondria”. The “colocalization signal with the mitochondria in the presence of Bay2402234” value in the data set with THP-1 cells is recorded as “decreased slightly but statistically significantly”. This compound also returned an IC50 against hDHODH enzyme GST-tagged of 170 nM.
